US20040122026A1, “Imidazolidine compounds” (Millennium Pharmaceuticals, Inc., priority 2002, published 2004)

Target: T1, CXCR3 (Homo sapiens, UniProt P49682)
T1 construct: expressed in transfected cells; membrane preparation
T1 sequence (P49682 1-368): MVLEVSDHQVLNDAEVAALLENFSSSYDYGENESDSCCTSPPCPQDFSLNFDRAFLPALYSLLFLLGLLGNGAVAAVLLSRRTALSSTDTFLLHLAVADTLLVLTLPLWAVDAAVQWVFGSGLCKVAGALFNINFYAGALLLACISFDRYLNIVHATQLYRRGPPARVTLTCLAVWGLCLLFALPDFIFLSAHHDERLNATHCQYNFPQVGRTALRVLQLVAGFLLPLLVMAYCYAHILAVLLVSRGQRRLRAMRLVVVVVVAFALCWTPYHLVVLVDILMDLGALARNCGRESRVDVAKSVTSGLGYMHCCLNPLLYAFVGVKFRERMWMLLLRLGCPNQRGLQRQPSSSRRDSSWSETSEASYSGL
Assay: CXCR3/IP-10 radioligand binding (125I-IP-10 competition on CXCR3.L1/2 cell membranes)
Details: test compound 10 μmol/L, 125I-labeled IP-10 binding to CXCR3.L1/2 transfectant cell membranes
From the text: The activity of the compounds of the present invention can be assessed using a suitable assay, such as a receptor binding assay, a chemotaxis assay, an extracellular acidification assay or a calcium flux assay (see, for example, Hesselgesser et al., J. Biol. Chem., 273(25): 15687-15692 (1998) and WO 98/02151). For example, as described herein, small organic molecule antagonists of CXCR3/IP-10 binding have been identified utilizing cells engineered to express recombinant human CXCR3 (CXCR3.L1/2) and which bind ^125I-IP-10 and chemotax in response to IP-10, Mig, or I-TAC. Specifically, a high through-put receptor binding assay, which monitors ^125I-IP-10 biding to CXCR3.L1/2 cell membranes, was used to identify small molecule antagonists. Binding assays can be performed using other ligands of CXCR3, such as, Mig, and/or I-TAC.
CXCR3/IP-10 Radioligand Binding:
CXCR3.L1/2 Membrane Preparation:
CXCR3.L1/2 cells were pelleted by centrifugation and stored at −80° C. The cells were lysed by thawing and resuspending at about 1.5×10^7 cells/mL in a hypotonic buffer (5 mmol/L HEPES (pH 7.2), 2 mmol/L EDTA, 10 μg/mL each leupeptin, aprotinin, and chymostatin, and 100 μg/mL PMSF (all from Sigma, St. Louis)). Nuclei and cellular debris are removed by centrifugation ([…], at 4° C.) for 10 min. The supernatant was transferred to chilled centrifuge tubes (Nalge, Rochester, N.Y.) and the membrane fraction was recovered by centrifugation (25,000 g at 4° C.) for 45 min. The membrane pellet was resuspended in freezing buffer (10 mmol/L HEPES (pH 7.2), 300 mmol/L Sucrose, 5 μg/mL each of leupeptin, aprotinin, and chymostatin, and 10 μg/mL PMSF). The total protein concentration was determined using a coomassie blue staining protein concentration assay kit (BioRad). The membrane preparations are aliquoted and stored at −80° C. until time of use.
CXCR3/IP-10 binding was performed in 96-well polypropylene plates (Costar) in a final volume of 0.1 mL of HBB buffer (50 mmol/L Hepes pH 7.4, 1 mmol/L CaCl2, 5 mmol/L MgCl2, 0.02% sodium azide, 0.5% BSA (bovine serum albumin)), containing 1 to 5 μg CXCR3.L1/2 transfectant cell membrane protein and 0.05 to 0.2 nmol/L of ^125I-labeled IP-10 (NEN, Boston, Mass.). Competition binding experiments were performed by including variable concentrations of unlabeled IP-10 or test compound. Nonspecific binding was determined following the addition of a 250 nmol/L unlabelled IP-10. Samples were incubated for 60 min at room temperature, and bound and free tracer (^125I-labeled IP-10) were separated by filtration through 96-well GF/B filterplates presoaked in 0.3% polyethyleneimine. The filters were washed in HBB further supplemented with 0.5 mol/L NaCl, dried, and the amount of bound radioactivity determined by liquid scintillation counting. The competition is presented as the percent specific binding as calculated by 100×[(S−B)/(T−B)], where S is the radioactivity bound for each sample, B is background binding, and T is total bound in the absence of competitors. Duplicates were used throughout the experiments.

Structure (SMILES) | inhibition at 10 µM (results Table 5) | inhibition at 10 µM (results Table 6)
Cc1cc(C)cc(CN2CCN(CCC(=O)N(CC(=O)O)c3cccc(CN4CCCCC4)c3)C2=C(C#N)C#N)c1 [Compound 9, N-Carboxymethyl-N-[3-(piperidinomethyl)phenyl]-3-[3-(3,5-dimethylbenzyl)-2-dicyanomethylideneimidazolidin-1-yl]propionamide] | 83% | –
Cc1cc(C)cc(CN2CCN(CCC(=O)N(Cc3ccccc3)c3cccc(CN4CCCCC4)c3)C2=C(C#N)C#N)c1 [Compound 5, N-Benzyl-N-[3-(piperidinomethyl)phenyl]-3-[3-(3,5-dimethylbenzyl)-2-dicyanomethylideneimidazolidin-1-yl]propionamide] | 95% | –
CCCN(C(=O)CCN1CCN(Cc2cc(C)cc(C)c2)C1=C(C#N)C#N)c1cccc(CN2CCCCC2)c1 [Compound 2, N-Propyl-N-[3-(piperidinomethyl)phenyl]-3-[3-(3,5-dimethylbenzyl)-2-dicyanomethylideneimidazolidin-1-yl]propionamide] | 99% | –
CCOC(=O)C1CCN(Cc2cccc(N(C(=O)CCN3CCN(Cc4cc(C)cc(C)c4)C3=C(C#N)C#N)C(C)C)c2)CC1 [Compound 25, N-Isopropyl-N-[3-(4-ethoxycarbonylpiperidinomethyl)phenyl]-3-[3-(3,5-dimethylbenzyl)-2-dicyanomethylideneimidazolidin-1-yl]propionamide] | – | 107%
Cc1cc(C)cc(CN2CCN(CCC(=O)N(c3cccc(CN4CCCCC4)c3)C(C)C)C2=C(C#N)C#N)c1 [Compound 3, N-Isopropyl-N-[3-(piperidinomethyl)phenyl]-3-[3-(3,5-dimethylbenzyl)-2-dicyanomethylideneimidazolidin-1-yl]propionamide] | 106% | –
